Results taken from patent US20120196892A1, “NOVEL CASPASE-2 INHIBITORS” (CHIESI FARMACEUTICI S.p.A., priority 2011, published 2012).

Experiments:
[1] = molecular target: T1, human recombinant caspase-2 (Homo sapiens, UniProt P42575); conditions: disclosed in WO 2005/105829; cited from earlier work
T1 construct: purchased BIOMOL, Plymouth, Pa., USA
T1 sequence (P42575 170-325 limits assumed): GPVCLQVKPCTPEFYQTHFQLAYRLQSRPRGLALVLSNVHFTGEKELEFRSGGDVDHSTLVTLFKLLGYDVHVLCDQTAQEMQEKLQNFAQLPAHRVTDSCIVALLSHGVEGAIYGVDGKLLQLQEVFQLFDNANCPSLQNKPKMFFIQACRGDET
T1 sequence (P42575 348-452 limits assumed): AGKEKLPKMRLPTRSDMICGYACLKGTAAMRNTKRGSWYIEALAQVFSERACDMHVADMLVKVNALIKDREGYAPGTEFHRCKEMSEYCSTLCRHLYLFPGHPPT

[2] = molecular target: T1, human recombinant caspase-2; assay: in vitro caspase-2 inhibition activity (Ac-VDVAD-AMC fluorogenic substrate cleavage); assay type: biochemical; conditions: for IC50: 30 minutes pre-incubation with inhibitors 0.001 to 2 μM, 200 μM Ac-VDVAD-AMC, read after 2 hours at 37° C., mean of three independent runs, read-out: IC50 (concentration which inhibits 50% of caspase activity); for caspase-2 inhibition activity (in words), comparative compounds: compounds used for comparative purposes, structurally related to TRP601
Method: The in vitro caspase-2 inhibition activity of 2-quinolinylcarbonyl-(S)-Valinyl-(S)-Aspartyl (methyl ester)-(S)-Valinyl-(S)-Alanyl-(R,S)-Aspartyl (methyl ester) 2,3,5,6-tetrafluorophenyl ester (TRP 701) in comparison to other compounds was evaluated according to the following protocol. Samples of human recombinant caspase-2 (25-50U, BIOMOL, Plymouth, Pa., USA) were pre-incubated for 30 minutes with inhibitors (0.001 to 2 μM) in final 100 μl final assay buffer (50 mM HEPES, pH 7.4, 100 mM NaCI, 0.1% CHAPS, 10 mM DTT, 1 mM EDTA, 10% glycerol) and then mixed with 200 μM of the fluorogenic caspase substrates (BIOMOL) Ac-VDVAD-AMC. An IC50 value corresponding to the concentration which inhibis 50% of caspase activity was determined from the dose-response sigmoid curve using the steady-state fluorescence approach. The cleavage of AMC-based substrate by human recombinant caspase-2 was measured after 2 hours at 37° C. on a fluorescence microplate reader by monitoring emission at 510 nm upon excitation at 405 nm.
Curves are the mean of three independent runs.

Q: With COC(=O)CC(NC(=O)[C@H](C)NC(=O)[C@@H](NC(=O)[C@H](CC(=O)OC)NC(=O)[C@@H](NC(=O)c1ccc2ccccc2n1)C(C)C)C(C)C)C(=O)COc1c(F)cccc1F (mixture of isomers) [TRP 601, 5-(2,6-difluoro-phenoxy)-3(R,S)-{2(S)-[2(S)-(3-methoxycarbonyl-2(S)-{3-methyl-2(S)-[(quinoline-2-carbonyl)-amino]butyrylamino}-propionylamino)-3-methyl-butyrylamino]-propionylamino}-4-oxo-pentanoic acid methyl ester] as the molecule, how does the “caspase-2 selectivity (in words), background statement” value [1] read?
A: selective caspase-2 inhibitor

Q: What about the IC50 [2] of the same molecule?
A: 0.06 to 0.09 µM

Q: For CC(C)[C@H](NC(=O)c1ccc2ccccc2n1)C(=O)O [M3, 2-quinolinylcarbonyl-S-Valine], which “caspase-2 inhibition activity (in words), comparative compounds” value [2] is on record?
A: inactive

Q: What does the source list for COC(=O)CC(NC(=O)[C@H](C)NC(=O)[C@@H](NC(=O)[C@H](CC(=O)OC)NC(=O)[C@@H](NC(=O)c1ccc2ccccc2n1)C(C)C)C(C)C)C(=O)COc1c(F)c(F)cc(F)c1F (mixture of isomers) [TRP 701, 5-(2,3,5,6-tetrafluoro-phenoxy)-3(R,S)-{2(S)-[2(S)-(3-methoxycarbonyl-2(S)-{3-methyl-2(S)-[(quinoline-2-carbonyl)-amino]-butyrylamino}-propionylamino)-3-methyl-butyrylamino]-propionylamino}-4-oxo-pentanoic acid methyl ester]?
A: caspase-2 selectivity (in words) [2]: selective caspase-2 inhibitor; IC50 [2]: 0.06 to 0.09 µM

Q: With “quinoline-2-carbonyl-(S)-Val-(S)-Asp(OMe)-(S)-Val-(S)-Ala-(R,S)-Ala((R,S)-CH2OC6H3(2,6-F2)) [TRP 600]” as the molecule, how does the “caspase-2 inhibition activity (in words), comparative compounds” value [2] read?
A: inactive
